Experimental data from a melting point compilation (Tetko et al.; mined from patent text by program, amines drawn as free bases though some values may be those of a salt).

SMILES | melting point
O=c1[nH]c2cc(NO)ccc2c(=O)n1CCCCN1CC=C(c2ccccc2)CC1 | 187 to 189 °C
COc1nc2cc(C(c3ccccc3)n3ccnc3)ccc2[nH]1 (stereo unspecified) | 110 °C
CC(C)(C)OC(=O)N1C[C@@H]2[C@H](C1)C(F)(F)CCC2(c1ccccc1)c1ccccc1 (racemic) | 162 °C
C[Si](C)(C)CC(O)(Cn1cncn1)c1ccccc1 (stereo unspecified) | 86 to 87 °C
CCOc1ncc(C(C)=O)cc1C(=O)Nc1c(C(N)=O)n[nH]c1CC | 217 to 219 °C
CCCCCCCCC1C=CC(Cc2ccc(C(=O)O)o2)=C2N=C3CCCCC3=C21 (stereo unspecified) | 152 to 155 °C
O=C1C(Cc2ccccc2CF)c2ccccc2C12COc1cc3c(cc12)OCCO3 (stereo unspecified) | 188 to 190 °C
c1ccc(NC2CCc3cccnc3C2)cc1 (stereo unspecified) | 102 to 103 °C
CCNC(=O)Nc1ccc(C(O)(C(F)(F)F)C(F)(F)F)cc1Br | 125 to 127 °C
Nc1ccc(-c2nc(-c3ccco3)no2)c(Cl)c1 | 175 to 176 °C
CCCn1nc2c(N)nc3ncccc3c2c1CC(C)C | 257 to 260 °C
CC(C)N1C(=O)C2CC2(c2ccc(N)cc2)C1=O (stereo unspecified) | 160 to 163 °C
COC(=O)C(=O)C1=C(O)c2ccsc2SC1 | 53 to 56 °C
O=C(NCCC(=O)N1CCCCC1)c1ccc(-c2ccc3nnn(Cc4ccc5ncccc5c4)c3n2)cc1F | 109 to 111 °C
O=C(Nc1cccc(S(=O)(=O)C(F)(F)F)c1)c1cnn2c(C(F)F)cc(-c3ccc(C(F)(F)F)cc3)nc12 | 207 °C
O=C(O)CCCC#CCNS(=O)(=O)c1ccc(Cl)cc1 | 91 to 93 °C
Cc1ccc(S(=O)(=O)c2ccc3[nH]cc(CCN)c3c2)cc1 | 137 to 140 °C
Cn1cc2c(=O)c(C(=O)c3ccccc3)cn(C)c2n1 | 272 to 274 °C
CCCc1nc2cc([N+](=O)[O-])ccc2n1Cc1ccc(C(=O)OCC)cc1 | 136 to 138 °C
COc1cccc(C#Cc2ccccc2)c1 | 70 °C
COc1ccc(CNc2n[nH]c3ncnc(Nc4cccc(Cl)c4)c23)cc1OC | 228 to 232 °C
O=C(Nc1ccc(Cc2nnn[nH]2)cc1)C(F)(F)C(F)(F)C(F)(F)C(F)(F)F | 173 to 174 °C
COc1ccc(-c2cc(=O)c(C(=O)O)cn2C2CC2)cc1 | 159 to 161 °C
C#CCN1CCN(C2Cc3ccc(OC)cc3Sc3ccc(Cl)cc32)CC1 (stereo unspecified) | 177 to 180 °C
C=CCNC(=NCCSCc1[nH]cnc1C)NC#N | 113 to 114 °C
Cn1cc(-c2ccccc2)c(=O)c(-c2ccc3ccccc3c2)c1 | 101 to 105 °C

SMILES | melting point
O=C(N[C@H](Cc1ccc(C(F)(F)F)cc1)[C@@H](O)c1cccc2ccccc12)C1CCCCC1 (racemic) | 156 to 157 °C
COC(CC1OCC(Br)([N+](=O)[O-])CO1)OC (stereo unspecified) | 95 to 97 °C
CC(C)(C)c1cc(C(=O)Nc2ccc(C(=O)O)cc2)cc(C(C)(C)C)c1O | 160 to 162 °C
Cc1nc2c3c(c(C(=O)N4CC4)cc2n1C)CCC(c1ccccc1)O3 (stereo unspecified) | 201 to 204 °C
COC(=O)C=C(C)c1ccc(CCC(C)(C)NCC(O)c2ccccc2)cc1 (stereo unspecified) | 98 to 102 °C
CCOC(=O)c1cn(-c2csnn2)c2nc(Cl)c(F)cc2c1=O | 188 to 192 °C
CCCc1c(OCCCOc2ccc(-c3cocn3)c(OC)c2CCC)ccc2c1OC(C(=O)O)CC2 (stereo unspecified) | 136 to 139 °C
CCCc1c(C(=O)C(C)C)c2ccc(C(=O)OCc3ccccc3)cc2n1C(=O)c1ccccc1Cl | 67.5 to 70 °C
CCCCCCc1cccc(NC2=NCCS2)c1 | 79 to 80 °C
CCC(=O)c1sc(Oc2ccc3c(c2)OCO3)c2c1CCc1cnn(C)c1-2 | 99 to 100 °C
Nc1ccc2c(c1)C(=O)c1cc(N)ccc1C2=O | 337 to 338 °C
O=C(O)CCCCCc1nn(-c2ccccc2)c2c1CCCC2 | 95 to 97 °C
COc1ccc(S(=O)(=O)C[N+](=O)[O-])c2ccccc12 | 109 to 110 °C
COc1cc2c(Nc3ccc(Cl)cc3F)ncnc2cc1OCCNC(=O)OC(C)(C)C | 190 to 191 °C
COc1ccc(Oc2cccc(Oc3ccc4c(c3)OCO4)c2C(=O)O)cc1 | 163 to 165 °C
Clc1ncccc1-c1nc2cccnc2o1 | 140 to 141 °C
CCOC(=O)C=Cc1ccc(OC)cc1OC | 58 °C
C#CCc1c(C)nc2c(NCc3c(C)cccc3NC(=O)OC)cccn12 | 149 to 150 °C
COc1cc(C(=O)c2ccc(C)cc2)cc(C(=O)O)c1OC | 135 to 136 °C
O=C(O)c1csc2ccc(OS(=O)(=O)c3ccccc3)cc12 | 202 to 203 °C
CC(C)(C)c1ccc(C(=O)Nc2cn3cc(-c4ccccc4)ccc3n2)cc1 | 252 to 253 °C
CC(=O)N1CCCCNC1=NC(c1ccccc1)c1ccccc1 | 250 to 252 °C
CC(=O)N1C(=O)OC[C@H]1c1ccccc1 | 94 °C
CCCCC1=Nc2ccccc2SN1Cc1ccc(-c2ccccc2C(=O)O)cc1 | 125 to 130 °C
C=CCN(CC=C)c1ccc(C=Cc2ccc(S(C)(=O)=O)cc2)cc1 | 101 to 102 °C
